Source: publication PMC10893631, “Receptor-based pharmacophore modeling, molecular docking, synthesis and biological evaluation of novel VEGFR-2, FGFR-1, and BRAF multi-kinase inhibitors” (BMC Chemistry, 2024)

How the values were obtained:
Assay in all cases: NCI SRB growth inhibition (single dose 10 µM / five-dose)
Type in all cases: cell-based, human
[1] = system: SNB-19; conditions: Homo sapiens; SNB-19 (CNS cancer), 10 µM; read-out: GI%
Procedure, shortened: (§1)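 SRB protein stain of fixed cells; compounds tested at one dose (10 µM) or five serial dilutions (10-fold or ½ log), diluted from DMSO stock. Cells plated 24 h before dosing, with a time-zero plate fixed in TCA. Percent growth derived from Tz, control and test absorbances; TGI taken where Ti = Tz.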

[2] = system: COLO 205; conditions: Homo sapiens; COLO 205 (Colon cancer), 10 µM; read-out: GI%
Procedure, shortened: as §1

[3] = system: HCC-2998; conditions: Homo sapiens; HCC-2998 (Colon cancer), 10 µM; read-out: GI%
Procedure, shortened: as §1

[4] = system: MCF7; conditions: Homo sapiens; MCF7 (Breast cancer), 10 µM; read-out: GI%
Procedure, shortened: as §1

[5] = system: ACHN; conditions: Homo sapiens; ACHN (Renal cancer), 10 µM; read-out: GI%
Procedure, shortened: as §1

[6] = system: OVCAR-8; conditions: Homo sapiens; OVCAR-8 (Ovarian cancer), 10 µM; read-out: GI%
Procedure, shortened: as §1

[7] = system: HCT-116; conditions: Homo sapiens, HCT-116; read-out: GI%
Procedure, shortened: as §1

[8] = system: MALME-3 M; conditions: Homo sapiens; MALME-3 M (Melanoma), 10 µM; read-out: GI%
Procedure, shortened: as §1

[9] = system: SW-620; conditions: Homo sapiens; SW-620 (Colon cancer), 10 µM; read-out: GI%
Procedure, shortened: as §1

[10] = system: MDA-MB-435; conditions: Homo sapiens; MDA-MB-435 (Melanoma), 10 µM; read-out: GI%
Procedure, shortened: as §1

[11] = system: A498; conditions: Homo sapiens; A498 (Renal cancer), 10 µM; read-out: GI%
Procedure, shortened: as §1

[12] = system: HOP-62; conditions: Homo sapiens; HOP-62 (Non-small cell lung cancer), 10 µM; read-out: GI%
Procedure, shortened: as §1

[13] = system: EKVX; conditions: Homo sapiens; EKVX (Non-small cell lung cancer), 10 µM; read-out: GI%
Procedure, shortened: as §1

[14] = system: A549/ATCC; conditions: Homo sapiens; A549/ATCC (Non-small cell lung cancer), 10 µM; read-out: GI%
Procedure, shortened: as §1

[15] = system: T-47D; conditions: Homo sapiens, T47D; T-47D (Breast cancer), 10 µM; read-out: GI%
Procedure, shortened: as §1

[16] = system: HS 578 T; conditions: Homo sapiens; HS 578 T (Breast cancer), 10 µM; read-out: GI%
Procedure, shortened: as §1

[17] = system: OVCAR-5; conditions: Homo sapiens; OVCAR-5 (Ovarian cancer), 10 µM; read-out: GI%
Procedure, shortened: as §1

[18] = system: SR; conditions: Homo sapiens; SR (Leukemia), 10 µM; read-out: GI%
Procedure, shortened: as §1

[19] = system: HCT-15; conditions: Homo sapiens; HCT-15 (Colon cancer), 10 µM; read-out: GI%
Procedure, shortened: as §1

[20] = system: CAKI-1; conditions: Homo sapiens; CAKI-1 (Renal cancer), 10 µM; read-out: GI%
Procedure, shortened: as §1

[21] = system: NCI-H460; conditions: Homo sapiens; NCI-H460 (Non-small cell lung cancer), 10 µM; read-out: GI%
Procedure, shortened: as §1

[22] = system: TK-10; conditions: Homo sapiens; TK-10 (Renal cancer), 10 µM; read-out: GI%
Procedure, shortened: as §1

[23] = system: MOLT-4; conditions: Homo sapiens; MOLT-4 (Leukemia), 10 µM; read-out: GI%
Procedure, shortened: as §1

[24] = system: MDA-MB-468; conditions: Homo sapiens; MDA-MB-468 (Breast cancer), 10 µM; read-out: GI%
Procedure, shortened: as §1

Structure (SMILES) | inhibition at 10 µM [3] [%] | inhibition at 10 µM [4] [%] | inhibition at 10 µM [5] [%] | inhibition at 10 µM [6] [%] | inhibition at 10 µM [7] [%] | inhibition at 10 µM [8] [%] | inhibition at 10 µM [9] [%] | inhibition at 10 µM [10] [%] | inhibition at 10 µM [11] [%] | inhibition at 10 µM [13] [%] | inhibition at 10 µM [14] [%] | inhibition at 10 µM [16] [%] | inhibition at 10 µM [17] [%] | inhibition at 10 µM [18] [%] | inhibition at 10 µM [19] [%] | inhibition at 10 µM [20] [%] | inhibition at 10 µM [21] [%] | inhibition at 10 µM [22] [%] | inhibition at 10 µM [23] [%] | inhibition at 10 µM [24] [%] | further results
O=C(NN=Cc1cccc(O)c1)c1ccc2[nH]c(-c3ccccc3)nc2c1 [8b, N'-(3-Hydroxybenzylidene)-2-phenyl-1H-benzo[d]imidazole-5-carbohydrazide] | < 5 | 43.1 | < 5 | 10.3 | < 5 | 39.7 | < 5 | 5.45 | < 5 | 13.8 | < 5 | < 5 | < 5 | 36.8 | < 5 | 9.41 | < 5 | < 5 | 31.5 | 18.9 | inhibition at 10 µM [1]: < 5%; inhibition at 10 µM [2]: < 5%; inhibition at 10 µM [12]: 19.3%; inhibition at 10 µM [15]: 50.9%
COc1cccc(C=NNC(=O)c2ccc3[nH]c(-c4ccccc4)nc3c2)c1 [8c, N'-(3-Methoxybenzylidene)-2-phenyl-1H-benzo[d]imidazole-5-carbohydrazide] | < 5 | 51 | < 5 | 24.5 | 12.7 | 47.1 | < 5 | 18.9 | < 5 | 41.8 | 20.1 | 20 | < 5 | 36.3 | 27.5 | 10 | 13.1 | < 5 | 35.4 | 22.7 | inhibition at 10 µM [1]: < 5%; inhibition at 10 µM [2]: 32.6%; inhibition at 10 µM [12]: 15.4%; inhibition at 10 µM [15]: 69.1%
COc1ccc(OC)c(C=NNC(=O)c2ccc3[nH]c(-c4ccccc4)nc3c2)c1 [8f, N'-(2,5-Dimethoxybenzylidene)-2-phenyl-1H-benzo[d]imidazole-5-carbohydrazide] | 8.92 | 54.1 | 36.5 | 52.6 | 52.5 | 40.5 | 30.3 | 73.7 | < 5 | 22.7 | 17.2 | 49.9 | < 5 | 36.3 | 65.2 | 41.5 | 15.8 | 19 | 49.5 | 24.7 | inhibition at 10 µM [1]: 21.4%
COc1cc(C=NNC(=O)c2ccc3[nH]c(-c4ccccc4)nc3c2)cc(OC)c1OC [8g, 2-Phenyl-N'-(3,4,5-trimethoxybenzylidene)-1H-benzo[d]imidazole-5-carbohydrazide] | 44.3 | 86 | 33.8 | 48.7 | 41.6 | 73.6 | 37.9 | 48.5 | < 5 | 12.2 | 29.3 | 51 | < 5 | 17.6 | 38.4 | 49.7 | 56.3 | 6.66 | 21.2 | 39.2 | inhibition at 10 µM [1]: 25.2%
O=C(NN=Cc1cccc(O)c1)c1ccc2[nH]c(-c3ccc(Cl)cc3)nc2c1 [8p, 2-(4-Chlorophenyl)-N'-(3-hydroxybenzylidene)-1H-benzo[d]imidazole-5-carbohydrazide] | 15.9 | 72.3 | < 5 | 19 | 37.7 | 58.9 | 6.31 | 15.2 | 10.2 | 7.59 | 7.53 | 27.1 | < 5 | 26.4 | < 5 | < 5 | 56.6 | < 5 | 68.6 | 65.8 | inhibition at 10 µM [2]: 34.6%; inhibition at 10 µM [12]: 32.5%; inhibition at 10 µM [15]: 79.8%
COc1ccc(C=NNC(=O)c2ccc3[nH]c(-c4ccc(Cl)cc4)nc3c2)cc1O [8s, 2-(4-Chlorophenyl)-N'-(3-hydroxy-4-methoxybenzylidene)-1H-benzo[d]imidazole-5-carbohydrazide] | 86.8 | 84.9 | < 5 | 43.2 | 69.5 | > 100 | 69.6 | 89.9 | < 5 | 37 | 7.66 | 86.9 | < 5 | 77.2 | 23.3 | 18.5 | 63.8 | < 5 | 83.7 | 88.7 | inhibition at 10 µM [1]: 39.7%
